# How the values were obtained:
# [1] = tested on: CD34+CD43− cells isolated from Activin A induced or SB-treated EBs; assay: T lymphoid precursor frequency analysis (limiting dilution assay on OP9-DL4 cells); type: cell-based, human; details: limiting dilution analyses, day 9 CD34+ population
# Protocol: (§1) The hESC line H1 (Thomson et al., 1998) and the reprogrammed human iPS cell line (MSC-iPS1; (Park et al., 2008)) were used in this study. They were maintained on irradiated mouse embryonic fibroblasts in hESC media as described previously (Kennedy et al., 2007). Prior to differentiation, the cells were feeder-depleted by culturing on matrigel (BD Biosciences, Bedford, Mass.) in hESC media for 24 to 48 hours. To generate EBs, hPSCs were treated with collagenase B (1 mg/ml; Roche, Indianapolis, Ind.) for 20 minutes followed by a short trypsin-EDTA (0.05%) step. Cells were gently scraped with a cell scraper to form small aggregates (10-20 cells). Aggregates were resuspended in StemPro-34 (Invitrogen), supplemented with penicillin/streptomycin (10 ng/mL), L-glutamine (2 mM), ascorbic acid (1 mM), monothioglycerol (MTG, 4×10^−4M; Sigma), and transferrin (150 μg/mL). […]
# Limiting dilution assays (LDA) of CD34+CD43− cells isolated from either Activin A induced or SB-treated EBs were performed by serial dilutions. […] The presence of CD45+CD7+CD43+CD5+ cells was scored. Progenitor frequencies were determined by the method of maximum likelihood applied to the Poisson model (Groth, 1982).
# [2] = tested on: H1 hESCs differentiated as embryoid bodies (EBs); assay: Hematopoietic colony assay of hESC-derived EBs; type: cell-based, human; details: for erythroid progenitors in day 13 EBs: treatment between days 2 and 4 of differentiation, Activin A at increasing concentrations
# Protocol: The hESC line H1 (Thomson et al., 1998) and the reprogrammed human iPS cell line (MSC-iPS1; (Park et al., 2008)) were used in this study. They were maintained on irradiated mouse embryonic fibroblasts in hESC media as described previously (Kennedy et al., 2007). Prior to differentiation, the cells were feeder-depleted by culturing on matrigel (BD Biosciences, Bedford, Mass.) in hESC media for 24 to 48 hours. To generate EBs, hPSCs were treated with collagenase B (1 mg/ml; Roche, Indianapolis, Ind.) for 20 minutes followed by a short trypsin-EDTA (0.05%) step. Cells were gently scraped with a cell scraper to form small aggregates (10-20 cells). Aggregates were resuspended in StemPro-34 (Invitrogen), supplemented with penicillin/streptomycin (10 ng/mL), L-glutamine (2 mM), ascorbic acid (1 mM), monothioglycerol (MTG, 4×10^−4M; Sigma), and transferrin (150 μg/mL). BMP-4 (10 ng/mL), bFGF (5 ng/mL), Activin A, 6 μM SB-431542, VEGF (15 ng/mL), Dkk (150 ng/mL), IL-6 (10 ng/mL), IGF-1 (25 ng/mL), IL-11 (5 ng/mL), SCF (50 ng/mL), EPO (2 U/mL final), TPO (30 ng/mL), IL-3 (30 ng/mL) and Flt-3L (10 ng/mL) were added as indicated. Cultures were maintained in a 5% CO2/5% O2/90% N2 environment for the first 8 days and then transferred to a 5% CO2/air environment. All recombinant factors are human and were purchased from R&D Systems (Minneapolis, Minn.).
# Analysis of hematopoietic colony potential was performed by plating either 5×103-2.5×10^4 sorted cells or 2.5×104-5.0×104 unfractionated EB populations in 1% methylcellulose containing specific cytokines as described in detail previously (Kennedy et al., 2007). Colonies consisting of erythroid, erythroid/myeloid and myeloid (either macrophage or mast cell) cells were quantified after 10-14 days.
# [3] = tested on: H1 hESCs differentiated as embryoid bodies (EBs); assay: Flow cytometric analysis of surface markers on hESC-derived EBs; type: cell-based, human
# Protocol: The hESC line H1 (Thomson et al., 1998) and the reprogrammed human iPS cell line (MSC-iPS1; (Park et al., 2008)) were used in this study. They were maintained on irradiated mouse embryonic fibroblasts in hESC media as described previously (Kennedy et al., 2007). Prior to differentiation, the cells were feeder-depleted by culturing on matrigel (BD Biosciences, Bedford, Mass.) in hESC media for 24 to 48 hours. To generate EBs, hPSCs were treated with collagenase B (1 mg/ml; Roche, Indianapolis, Ind.) for 20 minutes followed by a short trypsin-EDTA (0.05%) step. Cells were gently scraped with a cell scraper to form small aggregates (10-20 cells). Aggregates were resuspended in StemPro-34 (Invitrogen), supplemented with penicillin/streptomycin (10 ng/mL), L-glutamine (2 mM), ascorbic acid (1 mM), monothioglycerol (MTG, 4×10^-4M; Sigma), and transferrin (150 μg/mL). BMP-4 (10 ng/mL), bFGF (5 ng/mL), Activin A, 6 μM SB-431542, VEGF (15 ng/mL), Dkk (150 ng/mL), IL-6 (10 ng/mL), IGF-1 (25 ng/mL), IL-11 (5 ng/mL), SCF (50 ng/mL), EPO (2 U/mL final), TPO (30 ng/mL), IL-3 (30 ng/mL) and Flt-3L (10 ng/mL) were added as indicated. Cultures were maintained in a 5% CO2/5% O2/90% N2 environment for the first 8 days and then transferred to a 5% CO2/air environment. All recombinant factors are human and were purchased from R&D Systems (Minneapolis, Minn.). The following antibodies were used for these studies: CD3-APC (clone UCHT1), CD4-APC-EFluor750 (clone RPA-T4), CD5-PE-Cy7 (clone L17F12), CD7-FITC (clone M-[…]), CD8-eFluor-650 NC (clone RPA-T8), CD31-FITC (clone WM59), CD33-FITC (clone HIM 3-4), CD34-APC (clone 8G12), CD34-PE-CY7 (clone 4H11), CD41-APC (clone HIP8), […]10), CD45-APC-eFluor750 (clone 2D1) or CD45-PacificBlue (clone H130), CD56-PE-Cy7 (clone B159), CD90-APC (clone 5E10), CD117-APC (clone 104D2), CD144-PE (clone 123413), KDR-PE (clone 89106), TCRγδ-FITC (clone 11F2), TCRαβ-PE (clone T10B9.1A-31). Stained cells were analyzed using an LSRII (BD Biosciences) flow cytometer at the indicated time points. Data analysis was performed using FlowJo software. For T lymphoid studies, analyses were carried out by gating on live cells and lack of 6-Diamidino-2-phenylindole (DAPI) uptake, followed by gating on cells expressing CD45. All antibodies were purchased from BD Biosciences (San Diego, Calif.) with the following exceptions: CD8 eFluor-650 NC and CD34-PE-CY7 were purchased from eBioscience (San Diego, Calif.) and KDR was purchased from R&D systems. Cells were sorted with […] (BD) cell sorter at the Sick Kids/UHN Flow Cytometry Facility.
# [4] = tested on: phospho-SMAD2 (Activin/nodal signaling); assay: Western blot / densitometry of phospho-Smad2 in day 2 EBs; type: cell-based, human; details: 30 minutes treatment, FIG. 4B
# Source text: Thirty minutes after the addition of DMSO, Activin A, and/or SB at day 2 of differentiation, wells were harvested and lysed on ice using RIPA buffer. Proteins were separated by SDS-PAGE, transferred onto nitrocellulose membranes and probed overnight with Smad2 (Cell Signaling, 1:1000) and phospho-Smad2 antibodies (Millipore, 1:1000, […]/467). Membranes were scanned using the LI-COR Biosciences Odyssey imaging system.
# [5] = tested on: CD34+ population isolated from EBs; assay: RT-qPCR expression analysis of CD34+ fractions from day 9 EBs; type: cell-based, human; details: FIG. 4E
# Protocol: Total RNA was prepared with the RNAqueous RNA Isolation Kit (Ambion) and treated with RNase-free DNase (Qiagen). 100 ng to 1 ug RNA was transcribed into cDNA using random hexamers and Oligo (dT) with Superscript III Reverse Transcriptase (Invitrogen). Real-time quantitative PCR was performed on a MasterCycler EP RealPlex (Eppendorf). All experiments were carried out in triplicate using SYBR Green JumpStart Taq ReadyMix (Sigma). The oligonucleotide sequences are available upon request. Gene expression was evaluated as DeltaCt relative to control (ACTB).
# day 9 CD34+ progenitors = assay: OP9-DL4 co-culture for T-lineage differentiation; type: cell-based, human; details: cultured on OP9-DL4 cells; FIG. 5A
# Protocol: OP9 cells retrovirally-transduced to express Delta-like 4 (OP9-DL4) were generated and maintained in α-MEM medium supplemented with penicillin/streptomycin and 20% FBS (OP9 media) as previously described (La Motte-Mohs et al., 2005; Schmitt et al., 2004). 5-10×10^4 sorted human EB-derived subsets were added to individual wells of a 6-well plate containing OP9-DL4 cells, and cultured in OP9-media supplemented with rhFlt-3L (5 ng/mL) and rhIL-7 (5 ng/mL), (Peprotech, Rocky Hill, N.J.). rhSCF (100 ng/mL) was added for the first 8 days only, Every five days co-cultures were transferred onto fresh OP9-DL4 cells by vigorous pipetting and passaging through a 40 μm cell strainer to remove stromal cells.
# CD34+CD43− populations = assay: OP9-DL1 co-culture for erythroid/myeloid differentiation followed by colony assay; type: cell-based, human; details: 7 days of co-culture on OP9-DL1; FIG. 6C
# Protocol: Sorted cells were cultured at a concentration of 2×10^4 cells per well on irradiated OP9-DL1 monolayers in OP9 media with VEGF (5 ng/mL), TPO (30 ng/mL), SCF (50 ng/mL), Flt3 (10 ng/mL), IL-11 (5 ng/mL), and BMP-4 (10 ng/mL) in 24-well plates for 7 days. Cells were harvested as above. Analysis of hematopoietic colony potential was performed by plating either 5×103-2.5×10^4 sorted cells or 2.5×104-5.0×104 unfractionated EB populations in 1% methylcellulose containing specific cytokines as described in detail previously (Kennedy et al., 2007). Colonies consisting of erythroid, erythroid/myeloid and myeloid (either macrophage or mast cell) cells were quantified after 10-14 days.
# iPSC line MSC-iPS1 = assay: Hematopoietic differentiation of hiPSCs (flow cytometry and colony assay); type: cell-based, human; details: SB added between days 2 to 4; hiPSC; FIG. 7
# Protocol: as §1, with “cells).” for “cells). Aggregates were resuspended in StemPro-34 (Invitrogen), supplemented with penicillin/streptomycin (10 ng/mL), L-glutamine (2 mM), ascorbic acid (1 mM), monothioglycerol (MTG, 4×10^−4M; Sigma), and transferrin (150 μg/mL).”
# The following antibodies were used for these studies: CD3-APC (clone UCHT1), CD4-APC-EFluor750 (clone RPA-T4), CD5-PE-Cy7 (clone L17F12), CD7-FITC (clone M-T701), CD8-eFluor-650 NC (clone RPA-T8), CD31-FITC (clone WM59), CD33-FITC (clone HIM 3-4), CD34-APC (clone 8G12), CD34-PE-CY7 (clone 4H11), CD41-APC (clone HIP8), CD42b-PE (clone HIP1), CD43-PE (clone 1G10), CD45-APC-eFluor750 (clone 2D1) or CD45-PacificBlue (clone H130), CD56-PE-Cy7 (clone B159), CD90-APC (clone 5E10), CD117-APC (clone 104D2), CD144-PE (clone 123413), KDR-PE (clone 89106), TCRγδ-FITC (clone 11F2), TCRαβ-PE (clone T10B9.1A-31). Stained cells were analyzed using an LSRII (BD Biosciences) flow cytometer at the indicated time points. […]
# [6] = tested on: other pathways or kinases including BMP4, ERK, JNK or p38 MAPK; details: Inman, 2002; cited from earlier work
# [7] = inhibition between days 2 and 4, FIG. 4C
Molecule,frequency of T cell progenitors in SB-treated CD34+ population relative to Activin A-induced CD34+CD43− population [1],"erythroid progenitors in SB-treated EBs ([2]; any of the timepoints assayed, FIG. 4D)",erythroid progenitors in day 13 EBs ([2]; FIG. 1C),"CD43+ population at day 9 when SB addition delayed until day 3 ([3]; SB added at day 3 of differentiation, FIG. 9)",development of KDR+ and CD34+ populations ([3]; SB added between days 2 and 4 of differentiation),"induction of KDR+CD34+ hematopoietic mesoderm population at day 5 of differentiation ([3]; SB added within the first 24 hours of differentiation, FIG. 4A)","development of the CD43+ population in day 9 EBs [3, 7]","effect on CD34+ cells in day 9 EBs [3, 7]",development of KDR+ cells (mesoderm formation) ([3]; inhibitor added between days 1 and 2 of differentiation),levels of phospho-SMAD2 (densitometry) [4],"expression of LMO2, GATA1, GATA2 and HOXB4 versus Activin A-induced population [5]",expression of SOX17 and AML1C in CD34+ population versus Activin A-induced CD34+CD43− population [5],T cell generation from SB-treated day 9 CD34+ progenitors (day 9 CD34+ progenitors),numbers of erythroid and erythroid-myeloid progenitors versus Activin A-induced progenitors (CD34+CD43− populations),development of CD41+/CD43+ populations and erythroid and erythroid-myeloid progenitors (iPSC line MSC-iPS1),"inhibition of other pathways or kinases including BMP4, ERK, JNK or p38 MAPK [6]",induction of myeloid and erythroid progenitors ([2]; 0.3 ng/mL Activin A),"myeloid progenitors in day 13 EBs ([2]; increasing concentrations of Activin A, days 2-4, FIG. 1C)"
NC(=O)c1ccc(-c2nc(-c3ccc4c(c3)OCO4)c(-c3ccccn3)[nH]2)cc1 [SB-431542],more than 3 fold,not detected,eliminated almost all erythroid progenitors,development of some CD43^+ cells,developed normally,completely blocked,completely blocked,did not appear to impact,prevented the development of any KDR^+ cells,significantly reduced,comparable,higher levels,generated T cells,significantly higher numbers,inhibited,no observed inhibition,,
"Activin A: recombinant human factor purchased from R&D Systems, used for hematopoietic induction (protein, UniProt P08476 311-426, looked up) Inhibin beta A chain: GLECDGKVNICCKKQFFVSFKDIGWNDWIIAPSGYHANYCEGECPSHIAGTSGSSLSFHSTVINHYRMRGHSPFANLKSCCVPTKLRPMSMLYYDDGQNIIKKDIQNMIVEECGCS",,,increase in erythroid progenitors,,,,,,,,,,,,,,effectively induced both myeloid and erythroid progenitors,reduction in myeloid progenitors
